Measured values published in article PMC2946321 (Bioorganic & medicinal chemistry, 2010).

Legend:
sigma-2 (σ2) receptors = biological target: T1, sigma-2 (σ2) receptors (Rattus norvegicus, UniProt Q5U3Y7); assay: Sigma-2 receptor binding, rat liver membranes; conditions: read-out: Ki σ2
T1 sequence (Q5U3Y7 1-176): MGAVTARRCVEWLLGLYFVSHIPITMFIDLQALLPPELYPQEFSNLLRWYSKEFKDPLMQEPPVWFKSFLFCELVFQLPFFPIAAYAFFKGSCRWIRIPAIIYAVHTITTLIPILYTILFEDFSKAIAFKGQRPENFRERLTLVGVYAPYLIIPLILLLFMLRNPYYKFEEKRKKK

sigma-1 (σ1) receptors = sigma-1 (σ1) receptors (Cavia porcellus, UniProt Q60492); assay: Sigma-1 receptor binding, [3H]; set-up: species or system guinea pig; conditions: read-out: Ki σ1
Sequence of sigma-1 (σ1) receptors (Q60492 whole entry): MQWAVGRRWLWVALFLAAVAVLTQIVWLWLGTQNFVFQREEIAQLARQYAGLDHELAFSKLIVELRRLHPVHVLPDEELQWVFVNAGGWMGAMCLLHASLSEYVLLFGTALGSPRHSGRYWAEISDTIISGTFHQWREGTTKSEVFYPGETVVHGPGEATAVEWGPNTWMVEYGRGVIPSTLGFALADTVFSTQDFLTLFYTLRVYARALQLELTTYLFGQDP

human D2(long) [1] = biological target: T2, human D2(long) (Homo sapiens, UniProt P14416); assay: Competitive radioligand binding, 125I-IABN, D2 dopamine receptors
T2 sequence (P14416 whole entry): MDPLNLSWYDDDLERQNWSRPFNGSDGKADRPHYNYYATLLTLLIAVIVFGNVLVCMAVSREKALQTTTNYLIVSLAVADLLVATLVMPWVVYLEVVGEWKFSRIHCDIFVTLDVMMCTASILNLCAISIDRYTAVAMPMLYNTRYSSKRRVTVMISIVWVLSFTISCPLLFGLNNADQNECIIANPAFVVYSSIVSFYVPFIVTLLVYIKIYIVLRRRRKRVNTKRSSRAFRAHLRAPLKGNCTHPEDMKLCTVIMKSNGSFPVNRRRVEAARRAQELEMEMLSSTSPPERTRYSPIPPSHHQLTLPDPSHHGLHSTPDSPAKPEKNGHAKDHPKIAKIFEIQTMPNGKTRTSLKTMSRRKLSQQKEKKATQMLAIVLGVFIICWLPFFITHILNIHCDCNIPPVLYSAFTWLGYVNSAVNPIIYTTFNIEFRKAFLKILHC

human D3 = human D3 (Homo sapiens, UniProt P35462); assay: Competitive radioligand binding, 125I-IABN, D3 dopamine receptors; conditions: read-out: Ki D3
Sequence of human D3 (P35462 whole entry): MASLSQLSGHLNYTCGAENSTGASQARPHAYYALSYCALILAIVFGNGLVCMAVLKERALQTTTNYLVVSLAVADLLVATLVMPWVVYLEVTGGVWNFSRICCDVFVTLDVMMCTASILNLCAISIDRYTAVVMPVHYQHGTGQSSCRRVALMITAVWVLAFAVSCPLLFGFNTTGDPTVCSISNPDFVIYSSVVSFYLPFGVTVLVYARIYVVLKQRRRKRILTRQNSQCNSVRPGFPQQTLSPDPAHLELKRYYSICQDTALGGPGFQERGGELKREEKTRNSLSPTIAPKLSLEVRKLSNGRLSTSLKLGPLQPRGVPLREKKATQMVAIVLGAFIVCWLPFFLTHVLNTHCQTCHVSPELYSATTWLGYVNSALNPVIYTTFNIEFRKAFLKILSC

human D2(long) [2] = biological target: T2, human D2(long); assay: Forskolin-dependent whole cell adenylyl cyclase inhibition assay; assay type: cell-based; conditions: for effect on quinpirole inhibition of adenylyl cyclase: 10 nM test drug in presence of 10 nM quinpirole; for inhibition of forskolin-dependent cAMP accumulation: 10 nM, human D2long in HEK 293 cells, n = 4; for intrinsic efficacy category at D2 dopamine receptors: based on adenylyl cyclase assay

| Molecule | Ki (sigma-2 (σ2) receptors) | Ki (sigma-1 (σ1) receptors) | D3:D2 (Ki for D3 receptors/Ki for D2 receptors) (human D2(long) [1]) | Ki (human D2(long) [1]; read-out: Ki D2) | Ki (human D3) | effect on quinpirole inhibition of adenylyl cyclase (human D2(long) [2]) | inhibition of forskolin-dependent cAMP accumulation (human D2(long) [2]) | intrinsic efficacy category at D2 dopamine receptors (human D2(long) [2]) |
| --- | --- | --- | --- | --- | --- | --- | --- | --- |
| 1-(Benzo[b]thiophen-2-ylmethyl)-4-(4-bromophenyl)piperidin-4-ol oxalate [Compound 20] | 1960 ± 177 nM | 2.13 ± 0.44 nM | 3.0 | 46.8 ± 3 nM | 142 ± 27 nM |  |  |  |
| COc1cccc2[nH]cc(CN3CCC(O)(c4ccc(I)cc4)CC3)c12.O=C(O)C(=O)O [Compound 6, 4-(4-Iodophenyl)-1-((4-methoxy-1H-indol-3-yl)methyl)piperidin-4-ol oxalate] |  |  |  |  |  | able to attenuate the effect of quinpirole | no appreciable increase or decrease | neutral antagonists |
| COc1ccc2[nH]cc(CN3CCC(O)(c4ccc(I)cc4)CC3)c2c1.O=C(O)C(=O)O [Compound 7, 4-(4-Iodophenyl)-1-((5-methoxy-1H-indol-3-yl)methyl)piperidin-4-ol oxalate] |  |  |  |  |  | able to attenuate the effect of quinpirole | no appreciable increase or decrease | neutral antagonists |
| CN1CN(c2ccccc2)C2(CCN(Cc3coc4ccccc34)CC2)C1=O.O=C(O)C(=O)O [Compound 25, 8-(Benzofuran-3-ylmethyl)-3-methyl-1-phenyl-1,3,8-triazaspiro[4.5]decan-4-one oxalate] |  |  | 0.3 |  |  |  |  |  |
